The values that follow come from patent US20030206914A1, “Synthetic antigens for CD1-restricted immune responses” (priority 1997, published 2003).

Entries after “also recorded” stand apart in the source; their conditions may differ. Like-named read-outs stand apart in the source and are kept apart here.

Experiment [1] relates to CD8-1 T cell line (CD1c-restricted αβ). The experiment is described as follows: CD8-1 T cell line response. Type of experiment: cell-based, human.
For a further experiment, the target named is CD1b (Homo sapiens, UniProt P29016). The experiment is described as follows: Binding of glycolipid to CD1b. The text has this: Thus, CD1b binds to both natural and synthetic GMM but not to an analog that has only one long alkyl chain instead of two short alkyl chains.
Chain of CD1b (P61769 21-119): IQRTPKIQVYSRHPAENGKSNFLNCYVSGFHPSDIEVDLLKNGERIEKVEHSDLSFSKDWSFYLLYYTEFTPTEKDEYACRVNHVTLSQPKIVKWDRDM
Chain of CD1b (P29016 18-303): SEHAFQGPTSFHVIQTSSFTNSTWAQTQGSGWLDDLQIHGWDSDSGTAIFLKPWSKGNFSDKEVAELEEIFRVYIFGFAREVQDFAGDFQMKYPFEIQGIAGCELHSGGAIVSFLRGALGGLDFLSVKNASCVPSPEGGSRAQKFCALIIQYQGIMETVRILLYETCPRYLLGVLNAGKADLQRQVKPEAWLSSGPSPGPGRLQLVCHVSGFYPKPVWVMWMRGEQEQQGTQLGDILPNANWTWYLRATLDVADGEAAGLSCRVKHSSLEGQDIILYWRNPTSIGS
Experiment [2] concerns LDN5 T cell line (CD1b-restricted). The format is cell-based, human.
Experiment [3] deals with CD1b transfected C1R lymphoblastoid target cells. In words: LDN5 cytolysis assay, CD1b transfected targets. Type of experiment: cell-based, human. As to conditions: E:T 25:1; targets cultured with antigen (0.5 mg/ml purified glycolipid; 5 μg/ml synthetic GMM). The text has this: (§1) There was no response in the absence of antigen.
(§2) Similarly treated mock, CD1a or CD1c transfected cells were not lysed (FIG. 2B). The Na adduct of the fully synthetic GMM containing C32 mycolic acid was detected by ESI-MS analysis to be a single ion peak at m/z 681.6 (FIG. 2C). This synthetic GMM antigen lacks long chain length (compared with C80 mycolic acids of mycobacteria), cyclopropanation, double bonds and R groups, ruling out all of these natural chemical variations of the mycolic acid moiety as necessary antigenic determinants. The discovery of a synthetic CD1-restricted antigen with a simple and well defined structure allowed the systematic study of individual molecular features of the antigen that determined the specificity of the T cell response.
(§3) LDN5 was derived from the same human leprosy skin lesion that gave rise to the previously described LAM reactive T cell line LDN4 (P. A. Sieling, et al. (1995) Science 269:227). Cultures were stimulated initially with autologous GM-CSF and IL-4 treated CD1^+ monocytes and M. leprae sonicate. After establishment of LDN5, cultures were maintained in IL-2 supplemented medium and periodically stimulated with allogenic CD1^+ APCs and M. phlei sonicate (X/1000) containing GMM. […] T cell culture methods, proliferation assays and cytolysis assays were carried out according to the methods described in E. M. Beckman, et al. (1996) J. Immunol. […]

The next experiment deals with APCs. In words: Uptake and processing of CD1b-presented antigens by APCs. Type of experiment: cell-based. An excerpt: The uptake and processing pathway for CD1b-presented antigens was also defined. Several steps in the presentation of two related classes of CD1b-presented antigens, free and glycosylated mycolates, were examined. […] Thus, larger lipids, such as trehalose dimycolate cannot be broken down into GMM within cells. Given that the hydrophobic groove can accommodate approximately 32 CH2 units when measured in crystalline form, it is likely that the CD1 protein can open to encompass larger alkyl chains or that the chains can protrude from the groove.

Experiment [4] relates to mock, CD1a or CD1c transfected C1R cells. In words: LDN5 cytolysis assay, control transfectants. Type of experiment: cell-based, human. As to conditions: E:T 25:1; similarly treated with antigen.
Source text: as §1, §2, §3

The test system of experiment [5] is DN1 T cell line (CD1b-restricted, specific for free mycolic acid). In words: DN1 T cell line response. The format is cell-based, human. The text has this: The role of the carbohydrate moiety of the glycolipid in T cell recognition was separately evaluated.
LDN5 was derived from the same human leprosy skin lesion that gave rise to the previously described LAM reactive T cell line LDN4 (P. A. Sieling, et al. (1995) Science 269:227). Cultures were stimulated initially with autologous GM-CSF and IL-4 treated CD1^+ monocytes and M. leprae sonicate. After establishment of LDN5, cultures were maintained in IL-2 supplemented medium and periodically stimulated with allogenic CD1^+ APCs and M. phlei sonicate (X/1000) containing GMM. […] T cell culture methods, proliferation assays and cytolysis assays were carried out according to the methods described in E. M. Beckman, et al. (1996) J. Immunol. 157:2795. All bioassays were done in triplicate and reported as mean +/−standard deviation.

Experiment [6] has as its system 14 other T cell lines including SP-F3 and DN6.
Experiment [7] deals with CD1c-restricted T cell lines. The experiment is described as follows: Recognition by other CD1c-restricted T cell lines from different donors. Type of experiment: cell-based, human. To be noted: lines derived from different donors. An excerpt: Based on a survey of known mycobacterial phospholipids, the leading candidate structure for this antigen was that of a glycosyl phosphopolyprenol (GPP). See, Besra, G. S., et al. (1994) Proc. Natl. Acad. Sci. USA 91:12735-12739. The fragmentation pattern was consistent with the identification of the antigenic M. avium as a GPP, presuming that the lipid of m/z 420 was the hexaprenyl component of a fully saturated hexose phosphohexaprenol. To assess this, the ability of the T cell line CD8-1 to recognize purified mycobacterial GPPs was tested. The structure of Myc-PL, a mannosyl phosphopolyprenol esterified to a mycolic acid, had been determined in detail. Besra, G. S., et al. (1994) supra. Pure myc-PL was cleaved with strong base to yield free mycolate and mannosyl phosphoheptaprenol (MPP). Besra, G. S., et al. (1994) supra. […] Rush, J. S., et al.(1993) J. Biol. Chem. 268:13110-13117. […] Thus, these studies established that CD1c-restricted T cells specifically recognized GPPs from four different sources, including both natural and synthetic analogs of this structure.
All three CD1-restricted lines preferentially recognized the α-saturated MPDs typical of eukaryotes more potently than the α-unsaturated GPPs typical of prokaryotes. Krag, S. S. (1998) Biochem. Biophys. Res. Comm. 243:1-5. […]

In experiment [8] the test system is CD1a, CD1b and MHC class I restricted T cell lines. The experiment is described as follows: Stimulation of CD1a, CD1b and MHC class I restricted T cell lines (mitogenicity control). Type of experiment: cell-based.
The mark [9] stands for this setting: cytokine activated macrophages / CD1+ APCs.

On to `CC(C)=CCCC(C)=CCCC(C)=CCCC(C)=CCCC(C)=CCCC(C)=CCCC(C)=CCOP(=O)(O)O[C@@H]1O[C@H](CO)[C@@H](O)[C@H](O)[C@@H]1O` (relative stereo) [semi-synthetic MPP, β-D-mannopyranosyl-1-monophosphoryl-(poly-cis, di-trans, α-unsaturated) heptaprenol], for which the “CD8-1 response to antigen” value in experiment [1] is “responded significantly”.
As to `CC(C)=CCCC(C)=CCCC(C)=CCCC(C)=CCCC(C)=CCCC(C)=CCCC(C)=CCCC(C)=CCCC(C)=CCCC(C)=CCCC(C)=CCCC(C)=CCCC(C)=CCCC(C)=CCCC(C)=CCCC(C)=CCCC(C)=CCCC(C)=CCCC(C)CCOP(=O)(O)O[C@@H]1O[C@H](CO)[C@@H](O)[C@H](O)[C@@H]1O` (relative stereo) [β-D-mannopyranosyl-1-monophosphoryl-(poly-cis, di-trans, α-saturated) nondecaprenol], the “CD8-1 response to antigen” value in experiment [1] was “responded significantly”.
For the compound `CCCCCCCCCCCCCCCCCCCCCCCCCCCCCC(=O)OC[C@H]1OC(O)[C@H](O)[C@@H](O)[C@@H]1O` (stereo partly drawn) [G6T, Glucose-6-o-triacontanoate], the “binding to CD1b” value on CD1b (pH not given) is “did not bind to CD1b”.
As to `CCCCCCCCCCCCCC(O)CC(=O)OC[C@@H](O)[C@@H](O)[C@H](O)[C@@H](O)C=O` (stereo partly drawn) [glucose 6-O-3-hydroxypalmitate], in experiment [2] (setting [9]), the “LDN5 proliferative response to antigen” value was “did not respond”.
Regarding galactose monomycolate, in [2], the “LDN5 proliferative response to antigen” value is given as “responded very weakly or not at all”.
As to glucose monomycolate [GMM], the “lysis of CD1b transfected C1R target cells by LDN5” value in experiment [3] is “lysed CD1b transfected C1R lymphoblastoid target cells”. The “binding to CD1b at pH 4.0” value on CD1b (pH 4.0) is “occurring at pH 4.0”. Also, the “binding to CD1b at pH 7.0” value at CD1b (pH 7.0) is reported as “not at pH 7.0”. In the experiment on APCs, the “T cell recognition after treating APCs with fixing or endosome pH neutralizing agents” value is on record as “blocked by agents that fix APC membranes or neutralized the pH of endosomes” and the “rate of uptake by APCs” value is reported as “taken up by APCs at the same rate”. In addition, the “lysis of mock, CD1a or CD1c transfectants by LDN5” value in [4] is listed as “not similarly treated mock, CD1a or CD1c transfectants”. The “DN1 response to antigen” value in experiment [5] is recorded as “not to GMM”. For the same compound, the “proliferative response of other T cell lines” value in [6] is “not 14 other T cell lines tested”. In addition, in [2], the “LDN5 proliferative response to antigen” value is recorded as “stimulated LDN5; also recorded: proliferated at similar doses”.
In the case of mannose monomycolate, the “LDN5 proliferative response to antigen” value in experiment [2] was “responded very weakly or not at all”.
As for mannosyl phosphodolichol [MPD], the “recognition by two other CD1c-restricted T cell lines” value in experiment [7] is recorded as “recognized MPD”. For the same compound, the “CD8-1 response to antigen” value in experiment [1] is “recognized the 2,3 dihydro analog, mannosyl phosphodolichol (MPD), at much lower concentration”. Also, the “stimulation of CD1a, CD1b and MHC class I restricted T cell lines” value in experiment [8] is reported as “did not stimulate”.
For the compound mannosyl phosphoheptaprenol [MPP], in experiment [1], the “CD8-1 response to antigen” value is on record as “did respond to the pure MPP”.
For the compound “trehalose dimycolate [TDM, reference compound]”, the “cleavage by APCs to antigenic free mycolates or GMM” value with APCs is reported as “unable to cleave”.
As for “α,α trehalose dimycolate [purified cord factors from M. phlei, reference compound]”, the “LDN5 proliferative response to antigen” value in experiment [2] (setting [9]) was “not antigenic for LDN5”.
